# Where two headings read alike, the source gives them in different places.
# Columns and labels:
# [1] = biological target: JH2 domain of human Tyk2 (Homo sapiens (Human), UniProt P29597); experiment: JH2 Biochemical Assay (TR-FRET probe displacement); type: binding
# [2] = biological target: Tyk2 (Homo sapiens (Human), UniProt P29597); experiment: pSTAT4 Cell Assay (MSD, NK92 cells); type: cell-based
# [3] = TR-FRET probe displacement, JH2 domain
# [4] = JH2 domain of human Tyk2, TR-FRET probe displacement
# [5] = TR-FRET probe displacement, JH2 domain of human Tyk2
# Chain of Tyk2 (P29597 whole entry, the tested form may be a part): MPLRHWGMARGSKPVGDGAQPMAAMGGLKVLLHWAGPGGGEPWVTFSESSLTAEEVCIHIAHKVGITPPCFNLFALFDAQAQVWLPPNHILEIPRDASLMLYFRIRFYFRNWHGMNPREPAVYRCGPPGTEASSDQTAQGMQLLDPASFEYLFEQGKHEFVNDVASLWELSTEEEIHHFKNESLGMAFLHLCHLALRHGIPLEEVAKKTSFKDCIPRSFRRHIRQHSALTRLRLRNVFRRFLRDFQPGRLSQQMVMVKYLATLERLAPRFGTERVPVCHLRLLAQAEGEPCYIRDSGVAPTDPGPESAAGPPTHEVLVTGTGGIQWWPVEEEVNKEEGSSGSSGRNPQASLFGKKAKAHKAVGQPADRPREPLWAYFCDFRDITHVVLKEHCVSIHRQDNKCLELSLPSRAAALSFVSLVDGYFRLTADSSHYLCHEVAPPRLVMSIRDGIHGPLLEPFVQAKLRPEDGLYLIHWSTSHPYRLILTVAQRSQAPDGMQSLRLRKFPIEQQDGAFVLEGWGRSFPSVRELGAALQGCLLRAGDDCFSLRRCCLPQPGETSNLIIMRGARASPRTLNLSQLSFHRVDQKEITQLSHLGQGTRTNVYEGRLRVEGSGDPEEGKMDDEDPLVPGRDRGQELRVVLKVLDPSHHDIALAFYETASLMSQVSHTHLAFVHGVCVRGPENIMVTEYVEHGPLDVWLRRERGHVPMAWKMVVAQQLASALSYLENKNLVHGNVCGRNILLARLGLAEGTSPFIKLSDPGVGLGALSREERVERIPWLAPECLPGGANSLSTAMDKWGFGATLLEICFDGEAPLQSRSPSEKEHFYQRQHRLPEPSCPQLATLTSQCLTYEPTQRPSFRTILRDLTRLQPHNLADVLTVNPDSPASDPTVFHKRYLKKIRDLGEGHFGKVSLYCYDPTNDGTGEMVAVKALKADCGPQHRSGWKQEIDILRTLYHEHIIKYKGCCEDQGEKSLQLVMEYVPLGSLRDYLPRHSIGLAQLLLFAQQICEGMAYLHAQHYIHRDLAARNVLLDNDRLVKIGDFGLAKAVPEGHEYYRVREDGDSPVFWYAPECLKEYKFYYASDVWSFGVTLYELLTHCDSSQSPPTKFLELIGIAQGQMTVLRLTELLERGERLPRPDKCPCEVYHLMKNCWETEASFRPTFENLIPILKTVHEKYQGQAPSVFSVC
# Chain of JH2 domain of human Tyk2 (P29597 575-876): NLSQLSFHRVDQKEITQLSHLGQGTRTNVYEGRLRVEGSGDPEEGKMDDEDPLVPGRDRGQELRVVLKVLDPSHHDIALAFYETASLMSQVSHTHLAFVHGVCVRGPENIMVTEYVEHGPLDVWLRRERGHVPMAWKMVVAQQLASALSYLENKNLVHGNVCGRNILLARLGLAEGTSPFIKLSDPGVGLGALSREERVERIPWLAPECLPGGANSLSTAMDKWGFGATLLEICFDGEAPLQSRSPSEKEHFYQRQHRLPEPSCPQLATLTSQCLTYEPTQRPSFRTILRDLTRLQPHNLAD
SMILES,"IC50 [1, 3] [nM]",IC50 [2] [nM],"IC50 [1, 4] [nM]",IC50 ([2]; MSD) [nM],"IC50 [1, 5] [nM]"
"COCCN(C)c1cnc(-c2cnc(NC(C)=O)cc2Nc2ccnc(C(C)(F)F)n2)cn1 [Example 866, N-(4-((2-(1,1-difluoroethyl)pyrimidin-4-yl)amino)-5-(5-((2-methoxyethyl)(methyl)amino)pyrazin-2-yl)pyridin-2-yl)acetamide]",≤ 10,10 to 100,–,–,–
"CCOc1cnc(NC(C)=O)cc1Nc1cc(OC2CC(C#N)C2)nc(C(C)(F)F)n1 (stereo not drawn) [Example 463, N-(4-((6-(3-cyanocyclobutoxy)-2-(1,1-difluoroethyl)pyrimidin-4-yl)amino)-5-ethoxypyridin-2-yl)acetamide]",–,–,≤ 10,≤ 10,–
"CCOc1cnc(NC(C)=O)cc1Nc1cc(-c2cnn(CC(=O)O)c2)nc(C(C)(F)F)n1 [Example 305, 2-(4-(6-((2-acetamido-5-ethoxypyridin-4-yl)amino)-2-(1,1-difluoroethyl)pyrimidin-4-yl)-1H-pyrazol-1-yl)acetic acid]",–,–,–,≥ 1000,≤ 10
"CC(=O)Nc1cc(Nc2cc(C)nc(C(C)(F)F)n2)c(OCc2nc(C)co2)cn1 [Example 325, N-(4-((2-(1,1-difluoroethyl)-6-methylpyrimidin-4-yl)amino)-5-((4-methyloxazol-2-yl)methoxy)pyridin-2-yl)acetamide]",–,–,–,10 to 100,≤ 10
"CCc1cc(Nc2cc(NC(C)=O)ncc2-c2ccc(=O)[nH]n2)nc(C(C)(F)F)n1 [Example 221, N-(4-((2-(1,1-difluoroethyl)-6-ethylpyrimidin-4-yl)amino)-5-(6-oxo-1,6-dihydropyridazin-3-yl)pyridin-2-yl)acetamide]",–,–,–,≥ 1000,10 to 100
"CC(=O)Nc1cc(Nc2cc(C)nc(C(C)(F)F)n2)c(OCc2ccccc2)cn1 [Example 30, N-(5-(benzyloxy)-4-((2-(1,1-difluoroethyl)-6-methylpyrimidin-4-yl)amino)pyridin-2-yl)acetamide]",–,–,–,≤ 10,≤ 10
"CC(=O)Nc1cc(Nc2cc(C)nc(C(C)(F)F)n2)c(OCc2nc(C)ns2)cn1 [Example 343, N-(4-((2-(1,1-difluoroethyl)-6-methylpyrimidin-4-yl)amino)-5-((3-methyl-1,2,4-thiadiazol-5-yl)methoxy)pyridin-2-yl)acetamide]",–,–,–,10 to 100,≤ 10
"COCCn1cnc(-c2cnc(NC(C)=O)cc2Nc2cc(C)nc(C(C)(F)F)n2)n1 [Example 263, N-(4-((2-(1,1-difluoroethyl)-6-methylpyrimidin-4-yl)amino)-5-(1-(2-methoxyethyl)-1H-1,2,4-triazol-3-yl)pyridin-2-yl)acetamide]",–,–,–,100 to 1000,≤ 10
"CO[C@H]1C[C@H](Oc2cnc(NC(C)=O)cc2Nc2cc(C(C)C)nc(C(C)(F)F)n2)C1 [Example 408, N-(4-((2-(1,1-difluoroethyl)-6-isopropylpyrimidin-4-yl)amino)-5-((1r,3r)-3-methoxycyclobutoxy)pyridin-2-yl)acetamide]",–,–,≤ 10,≤ 10,–
"CNC(=O)Nc1cc(Nc2ccnc(C(C)(F)F)n2)c(-c2nc3c(s2)CN(C)CC3)cn1 [Example 795, 1-(4-((2-(1,1-difluoroethyl)pyrimidin-4-yl)amino)-5-(5-methyl-4,5,6,7-tetrahydrothiazolo[5,4-c]pyridin-2-yl)pyridin-2-yl)-3-methylurea]",≤ 10,≤ 10,–,–,–
"COc1cnc(NC(C)=O)cc1Nc1cc(-c2cnn(C(C)C)c2F)nc(C(C)(F)F)n1 [Example 383, N-(4-((2-(1,1-difluoroethyl)-6-(5-fluoro-1-isopropyl-1H-pyrazol-4-yl)pyrimidin-4-yl)amino)-5-methoxypyridin-2-yl)acetamide]",–,–,10 to 100,10 to 100,–
"CC(=O)Nc1cc(Nc2cc(C)nc(C(C)(F)F)n2)c(OCC2(F)CCCOC2)cn1 (stereo not drawn) [Example 417, N-(4-((2-(1,1-difluoroethyl)-6-methylpyrimidin-4-yl)amino)-5-((3-fluorotetrahydro-2H-pyran-3-yl)methoxy)pyridin-2-yl)acetamide]",–,–,≤ 10,≤ 10,–
